Where two headings read alike, the source gives them in different places.
Key:
[1] = system: C. lagenarium; assay: Spore germination assay, fungicidal activity against C. lagenarium; type: cell-based, Colletotrichum lagenarium; settings: Colletotrichum orbiculare
Protocol: (§1) The fungal pathogens C. lagenarium and B. cinerea was provided by the Agricultural Culture Collection of China (Yangling, Shaanxi, China). C. lagenarium was cultured for 2 weeks at 25 ± 1 °C on potato dextrose agar (PDA) while B. cinerea was cultured at 20 °C on the same medium after being retrieved from the storage tube. Plates were flooded with sterile distilled water, and then conidia were scraped with a glass rod. Mycelial debris was removed by filtration. The spores were harvested and suspended in sterile distilled water containing 0.1% (v/v) Tween 20. The concentration of the spore suspension was adjusted to 1.0 × 10^6 spores/mL with sterilized distilled water following.
(§2) The tested samples (10.0 mg) dissolved in acetone (0.1 mL) were diluted with sterile distilled water to prepare 10.0 mL stock solution, which was further diluted to prepare test solutions in which the final concentration of acetone was <1% (v/v). A series of concentrations of tested samples and one control (1% acetone with sterile distilled water) were separately tested for spore germination of C. lagenarium or B. cinerea. The samples were inoculated with spore suspension of C. lagenarium or B. cinerea containing 1.0 × 10^6 spores/mL. Aliquots of 10 μL of prepared spore suspension were placed on separate glass slides in triplicate. Slides containing the spores were incubated in a moisture chamber at 25 °C for 6~8 h. Each slide was then observed under the microscope for spore germination. Spores were considered to have germinated if the length of the germ tube was at least half the length of the spore. Afterward, spore germination was stopped by applying a drop of lactophenol-cotton blue to the inoculation sites on plates. The numbers of generated spores were counted under a microscope (Olympus BX61, Tokyo, Japan), and the percentage of germinated spores was calculated. Chlorothalonil was used as the positive control.

[2] = system: B. cinerea; assay: Spore germination assay, fungicidal activity against B. cinerea; type: cell-based, Botrytis cinerea; settings: Botrytis cinerea, in vitro, n = 3
Protocol: as §1, §2

[3] = system: HepG2 cell line; assay: Cytotoxic activity against human tumor cells line (HepG2); type: cell-based
[4] = Table 1, from IC50 in μM, read-out: pIC50, C. lagenarium (converted)
[5] = Table 2, fungicidal activity against C. lagenarium used for QSAR, read-out: pIC50 (converted)
[6] = Table 4, experimental, C. lagenarium, read-out: Exp. pIC50 (converted)
[7] = Table 6, read-out: IC50 (μM) (against C. lagenarium)
[8] = in vitro, spore germination, n = 3, read-out: IC50, C. lagenarium

melting point [°C] | SMILES | IC50 [1, 4] [µM] | IC50 [1, 5] [µM] | IC50 [1, 6] [µM] | IC50 [1, 7] [µM] | IC50 [1, 8] [µM] | IC50 [2] [µM] | IC50 [3] [µM]
180.3 to 180.8 | C=C1CC(c2ccccc2OC(=O)c2cccc(OC)c2)OC1=O (stereo not drawn) [Compound 5l, 4-[2-(3-Methoxylbenzoyloxy)phenyl]-2-methylenebutyrolactone] | 284 | 284 | 284 | 284 | 284 | 303 | 29
179.3 to 179.9 | C=C1CC(c2ccccc2OC(=O)c2cccc(C)c2)OC1=O (stereo not drawn) [Compound 5i, 4-[2-(3-Methylbenzoyloxy)phenyl]-2-methylenebutyrolactone] | 182 | 182 | 182 | 182 | 182 | 194 | 85.2
189.6 to 190.1 | C=C1CC(c2ccc(OC(=O)c3ccccc3C)cc2)OC1=O (stereo not drawn) [Compound 4j, 4-[4-(2-Methylbenzoyloxy)phenyl]-2-methylenebutyrolactone] | 192 | 192 | 192 |  | 192 | 199 | 
166.3 to 167 | C=C1CC(c2ccccc2OC(=O)c2ccccc2)OC1=O (stereo not drawn) [Compound 5g, 4-(2-Benzoyloxyphenyl)-2-methylenebutyrolactone] | 171 | 171 | 171 |  | 171 | 194 | 

Further lines, the compound ahead of its results:

SMILES | melting point [°C] | IC50 [1, 4] [µM] | IC50 [1, 5] [µM] | IC50 [1, 6] [µM] | IC50 [1, 7] [µM] | IC50 [1, 8] [µM] | IC50 [2] [µM] | IC50 [3] [µM]
C=C1CC(c2ccc(O)cc2)OC1=O (stereo not drawn) [Compound 4, 4-(4-Hydroxyphenyl)-2-methylenebutyrolactone] | 79 to 81 | 161 |  |  | 161 | 161 | 208 | 23.3
C=C1CC(c2ccc(OC(=O)c3ccccc3)cc2)OC1=O (stereo not drawn) [Compound 4i, 4-(4-Benzoyloxyphenyl)-2-methylenebutyrolactone] | 223.3 to 223.7 | 95.3 | 95.3 | 95.3 | 95.4 | 95.4 | 112 | 5.3
C=C1CC(c2ccccc2OCC)OC1=O (stereo not drawn) [Compound 5r, 4-(2-Ethoxyphenyl)-2-methylenebutyrolactone] |  | 520 | 520 | 520 | 519 | 519 | 549 | 38.4
C=C1CC(c2ccc(OC(=O)C=Cc3ccc(O)c(OC)c3)cc2)OC1=O (stereo not drawn) [Compound 4q] |  | 8.93 |  | 8.93 | 8.93 | 8.93 | 21.5 | 27.3
C=C1CC(c2cccc(OC(=O)c3ccccc3C)c2)OC1=O (stereo not drawn) [Compound 6g, 4-[3-(2-Methylbenzoyloxy)phenyl]-2-methylenebutyrolactone] | 178.3 to 178.9 | 159 | 159 | 159 | 159 | 159 | 180 | 22
C=C1CC(c2ccccc2OC(=O)c2cccc(Br)c2)OC1=O (stereo not drawn) [Compound 5d, 4-[2-(3-Bromobenzoyloxy)phenyl]-2-methylenebutyrolactone] | 189.7 to 190.4 | 13.4 | 13.4 | 13.4 | 13.4 | 13.4 | 22.9 | 35.6
C=C1CC(c2ccc(OC(=O)c3ccc(Cl)cc3)cc2)OC1=O (stereo not drawn) [Compound 4c, 4-[4-(4-Chlorobenzoyloxy)phenyl]-2-methylenebutyrolactone] | 171.3 to 171.6 | 12.7 | 12.7 | 12.7 |  | 12.7 | 27.3 | 
C=C1CC(c2ccc(OC(=O)CC)cc2)OC1=O (stereo not drawn) [Compound 4p, 4-[4-(Propionyloxy)phenyl]-2-methylenebutyrolactone] |  | 207 | 207 | 207 | 207 | 207 | 237 | 19.5
C=C1CC(c2ccc(OC(=O)c3cccc(OC)c3)cc2)OC1=O (stereo not drawn) [Compound 4n, 4-[4-(3-Methoxylbenzoyloxy)phenyl]-2-methylenebutyrolactone] | 185.7 to 186.2 | 212 | 212 | 212 |  | 212 | 224 | 

Reference: paper PMC6273913, “New α-Methylene-γ-Butyrolactone Derivatives as Potential Fungicidal Agents: Design, Synthesis and Antifungal Activities” (Molecules, 2016)
